{"source": "paper PMC6635827", "about": "(Drug Design, Development and Therapy, 2019)", "key": {"mushroom tyrosinase [1]": {"molecular_target": "T1, mushroom tyrosinase (Agaricus bisporus, UniProt C7FF04)", "T1 sequence (C7FF04 1-392)": "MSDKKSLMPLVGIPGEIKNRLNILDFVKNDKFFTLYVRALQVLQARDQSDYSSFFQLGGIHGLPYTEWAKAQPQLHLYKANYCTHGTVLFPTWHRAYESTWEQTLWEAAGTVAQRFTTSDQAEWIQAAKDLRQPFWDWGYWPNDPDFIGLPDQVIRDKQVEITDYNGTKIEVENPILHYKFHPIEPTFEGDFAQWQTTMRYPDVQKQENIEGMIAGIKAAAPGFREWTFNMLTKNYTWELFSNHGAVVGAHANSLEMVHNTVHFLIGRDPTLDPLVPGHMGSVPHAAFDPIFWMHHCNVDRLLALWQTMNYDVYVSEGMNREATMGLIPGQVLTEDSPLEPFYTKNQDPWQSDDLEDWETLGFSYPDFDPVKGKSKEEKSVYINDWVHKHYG", "conditions": "cited from earlier work"}, "tyrosinase": {"test_system": "tyrosinase", "assay": "Tyrosinase zymography", "assay_type": "biochemical, mushroom", "conditions": "L-DOPA staining, compared to untreated control"}, "mushroom tyrosinase [2]": {"molecular_target": "T1, mushroom tyrosinase", "assay": "Mushroom tyrosinase inhibition assay", "assay_type": "biochemical", "conditions": "for inhibition at 30 µM: read-out: percent inhibition"}}, "note": "Like-named read-outs stand apart in the source and are kept apart here."}
{"smiles": "O=c1cc[nH]c(=S)[nH]1", "note": "[thiouracil]", "values": [{"measurement": "IC50", "setting": "mushroom tyrosinase [1]", "result": 128, "unit": "µM"}, {"measurement": "Inhibition type", "setting": "mushroom tyrosinase [1]", "result": "noncompetitive inhibitors"}]}
{"smiles": "Cc1cc(=O)[nH]c(=S)[nH]1", "note": "[methylthiouracil]", "values": [{"measurement": "IC50", "setting": "mushroom tyrosinase [1]", "result": 142, "unit": "µM"}, {"measurement": "Inhibition type", "setting": "mushroom tyrosinase [1]", "result": "noncompetitive inhibitors"}]}
{"smiles": "Nc1nc(N)c(N=Nc2ccccc2[N+](=O)[O-])c(Cl)n1", "note": "[Compound 1a, 6-chloro-5-((2-nitrophenyl)diazenyl) pyrimidine-2,4-diamine]", "values": [{"measurement": "band intensity on zymogram (inhibitory effect on tyrosinase activity)", "setting": "tyrosinase", "result": "lightest bands"}]}
{"smiles": "Nc1nc(N)c(N=Nc2ccc([N+](=O)[O-])cc2)c(Cl)n1", "note": "[Compound 1b, 6-chloro-5-((4-nitrophenyl)diazenyl) pyrimidine-2,4-diamine]", "values": [{"measurement": "inhibition at 30 µM", "setting": "mushroom tyrosinase [2]", "result": 23.7, "unit": "%"}]}
{"smiles": "COc1ccc(N=Nc2c(N)nc(N)nc2Cl)cc1", "note": "[Compound 1e, 6-chloro-5-((4-methoxyphenyl)diazenyl) pyrimidine-2,4-diamine]", "values": [{"measurement": "inhibition at 30 µM", "setting": "mushroom tyrosinase [2]", "result": 55.1, "unit": "%"}]}
{"smiles": "CC(=O)Nc1ccc(N=Nc2c(N)nc(N)nc2Cl)cc1", "note": "[Compound 1d, N-(4-((2,4-diamino-6-chloropyrimidin-5-yl)diazenyl)phenyl) acetamide]", "values": [{"measurement": "band intensity on zymogram (inhibitory effect on tyrosinase activity)", "setting": "tyrosinase", "result": "lightest bands"}, {"measurement": "IC50", "setting": "mushroom tyrosinase [2]", "result": 24.5, "unit": "µM"}]}
{"smiles": "COc1ccc(N=Nc2c(N)nc(N)nc2N)cc1", "note": "[Compound 2d, 5-((4-methoxyphenyl)diazenyl) pyrimidine-2,4,6-triamine]", "values": [{"measurement": "band intensity on zymogram (inhibitory effect on tyrosinase activity)", "setting": "tyrosinase", "result": "minimal inhibitory effect"}]}
